In ChEMBL document CHEMBL1129561 (J Med Chem, 1996):

What was measured:
Progesterone receptor [1] = biological target: T1, Progesterone receptor (Homo sapiens, UniProt P06401)
T1 sequence (P06401 whole entry): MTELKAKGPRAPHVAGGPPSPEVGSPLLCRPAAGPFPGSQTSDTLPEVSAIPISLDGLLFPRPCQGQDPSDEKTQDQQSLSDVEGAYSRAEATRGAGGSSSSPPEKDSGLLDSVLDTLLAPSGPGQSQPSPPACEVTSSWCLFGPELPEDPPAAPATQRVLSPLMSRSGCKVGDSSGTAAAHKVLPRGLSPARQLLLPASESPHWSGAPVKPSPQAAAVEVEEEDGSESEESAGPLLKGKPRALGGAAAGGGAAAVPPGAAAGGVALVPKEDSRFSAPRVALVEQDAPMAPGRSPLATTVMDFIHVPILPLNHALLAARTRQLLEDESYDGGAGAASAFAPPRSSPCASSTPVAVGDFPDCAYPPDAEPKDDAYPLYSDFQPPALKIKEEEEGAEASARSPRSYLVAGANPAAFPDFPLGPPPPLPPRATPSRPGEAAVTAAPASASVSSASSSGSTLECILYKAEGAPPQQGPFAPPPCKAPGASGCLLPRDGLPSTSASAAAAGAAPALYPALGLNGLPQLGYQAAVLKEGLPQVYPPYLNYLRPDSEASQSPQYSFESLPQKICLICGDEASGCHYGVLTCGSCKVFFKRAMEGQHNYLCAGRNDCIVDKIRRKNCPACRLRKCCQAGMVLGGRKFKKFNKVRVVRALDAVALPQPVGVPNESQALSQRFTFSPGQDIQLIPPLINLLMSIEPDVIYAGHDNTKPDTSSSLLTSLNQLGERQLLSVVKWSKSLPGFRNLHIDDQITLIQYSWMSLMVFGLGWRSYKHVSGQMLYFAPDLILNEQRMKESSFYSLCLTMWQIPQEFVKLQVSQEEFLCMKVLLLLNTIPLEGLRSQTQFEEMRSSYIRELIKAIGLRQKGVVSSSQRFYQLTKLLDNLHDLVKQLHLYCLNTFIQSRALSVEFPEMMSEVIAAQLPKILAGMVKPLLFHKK

Progesterone receptor [2] = biological target: T1, Progesterone receptor; remark: listed apart in the source
[3] = biological target: T2, Progesterone receptor (Homo sapiens) (UniProt P06401); conditions: CV-1
T2 sequence (whole entry): T1 sequence (P06401 whole entry)

Progesterone receptor [4] = biological target: T1, Progesterone receptor; remark: listed apart in the source
Glucocorticoid receptor [5] = biological target: T3, Glucocorticoid receptor (Homo sapiens, UniProt P04150)
T3 sequence (P04150 whole entry): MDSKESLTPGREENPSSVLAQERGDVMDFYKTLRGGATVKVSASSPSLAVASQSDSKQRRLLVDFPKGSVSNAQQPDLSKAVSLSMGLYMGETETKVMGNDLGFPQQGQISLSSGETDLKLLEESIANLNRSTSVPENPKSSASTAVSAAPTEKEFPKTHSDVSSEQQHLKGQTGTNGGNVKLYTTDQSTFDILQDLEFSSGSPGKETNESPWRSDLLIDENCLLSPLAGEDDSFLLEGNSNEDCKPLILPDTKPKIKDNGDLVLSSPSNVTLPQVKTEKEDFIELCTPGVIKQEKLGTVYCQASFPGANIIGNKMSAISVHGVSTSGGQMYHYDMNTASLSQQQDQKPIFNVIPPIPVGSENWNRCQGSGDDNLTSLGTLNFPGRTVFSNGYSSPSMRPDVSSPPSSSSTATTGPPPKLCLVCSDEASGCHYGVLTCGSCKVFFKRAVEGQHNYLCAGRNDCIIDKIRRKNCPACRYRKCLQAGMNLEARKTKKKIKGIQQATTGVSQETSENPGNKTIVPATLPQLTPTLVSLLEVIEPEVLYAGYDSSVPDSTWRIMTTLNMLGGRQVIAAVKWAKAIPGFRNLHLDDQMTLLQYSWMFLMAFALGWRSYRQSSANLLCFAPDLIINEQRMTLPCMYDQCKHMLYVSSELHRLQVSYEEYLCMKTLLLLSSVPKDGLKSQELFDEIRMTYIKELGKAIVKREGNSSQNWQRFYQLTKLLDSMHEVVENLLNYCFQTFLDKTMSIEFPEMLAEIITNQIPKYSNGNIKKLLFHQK
Description: Binding affinity was determined for human glucocorticoid receptor(hGR).

Progesterone receptor [6] = biological target: T1, Progesterone receptor; remark: listed apart in the source
Androgen receptor [7] = biological target: T4, Androgen receptor (Homo sapiens, UniProt P10275)
T4 sequence (P10275 whole entry): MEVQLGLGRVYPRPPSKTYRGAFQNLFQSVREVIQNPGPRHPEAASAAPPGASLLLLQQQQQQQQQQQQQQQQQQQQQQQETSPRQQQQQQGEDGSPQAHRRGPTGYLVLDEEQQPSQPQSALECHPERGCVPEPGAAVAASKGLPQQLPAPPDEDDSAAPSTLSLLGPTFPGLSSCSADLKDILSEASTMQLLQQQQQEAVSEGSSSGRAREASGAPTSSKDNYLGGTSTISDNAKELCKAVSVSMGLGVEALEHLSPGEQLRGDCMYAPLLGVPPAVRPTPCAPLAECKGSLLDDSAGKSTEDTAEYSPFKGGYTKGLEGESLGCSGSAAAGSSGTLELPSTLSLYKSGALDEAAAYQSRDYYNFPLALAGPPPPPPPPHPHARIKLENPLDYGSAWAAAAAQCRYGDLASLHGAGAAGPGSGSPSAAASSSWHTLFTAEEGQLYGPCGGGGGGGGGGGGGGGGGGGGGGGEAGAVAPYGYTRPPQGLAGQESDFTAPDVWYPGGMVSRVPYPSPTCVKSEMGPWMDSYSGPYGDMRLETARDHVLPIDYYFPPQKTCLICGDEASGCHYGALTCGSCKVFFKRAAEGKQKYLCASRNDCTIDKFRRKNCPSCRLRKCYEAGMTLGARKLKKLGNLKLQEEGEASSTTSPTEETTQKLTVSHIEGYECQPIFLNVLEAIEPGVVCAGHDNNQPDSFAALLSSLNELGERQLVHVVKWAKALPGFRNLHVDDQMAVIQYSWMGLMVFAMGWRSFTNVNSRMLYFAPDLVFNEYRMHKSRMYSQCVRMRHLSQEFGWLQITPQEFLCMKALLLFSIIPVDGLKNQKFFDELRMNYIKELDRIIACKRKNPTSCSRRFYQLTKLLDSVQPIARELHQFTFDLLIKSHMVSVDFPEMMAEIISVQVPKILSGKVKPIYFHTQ
Description: Binding affinity determined against human Androgen receptor

Progesterone receptor [8] = biological target: T1, Progesterone receptor; remark: listed apart in the source
Androgen receptor [9] = biological target: T4, Androgen receptor; remark: listed apart in the source
Description: Inhibitory activity against human Androgen receptor

Estrogen receptor = Estrogen receptor (Homo sapiens, UniProt Q92731+P03372)
Description: Inhibitory activity against human estrogen receptor

Glucocorticoid receptor [10] = biological target: T3, Glucocorticoid receptor; assay: Inhibitory activity against human glucocorticoid receptor (hGR)
[11] = biological target: T2, Progesterone receptor (Homo sapiens); conditions: CV-1; remark: listed apart in the source

Row | SMILES | Ki (Progesterone receptor [1]) | IC50 (Progesterone receptor [2]) [µM] | Max inhibition [3] [%] | EC50 (Progesterone receptor [4]) [µM] | Ki (Glucocorticoid receptor [5]) | IC50 (Progesterone receptor [6]) [µM] | Ki (Androgen receptor [7]) | Max inhibition [11] [%] | EC50 (Progesterone receptor [8]) [µM] | IC50 (Androgen receptor [9]) [µM] | IC50 (Estrogen receptor) [µM] | IC50 (Glucocorticoid receptor [10]) [µM]
1 | C=C1C=C(C)CC(C)(C)C1Cc1ccc([N+](=O)[O-])c(C)c1 (configuration not stated) | 0.0288 µM | 0.51 | 85 | – | 6.81 µM | 1.8 | 2.7 µM | – | – | – | – | –
2 | COc1cc(CC2C(C)(C)CC(C)=CC23CC3)c(OC(C)=O)cc1Br (configuration not stated) | 0.098 µM | 0.44 | 26 | 2.12 | 2.57 µM | 0.16 | 3.01 µM | – | – | – | – | –
3 | C=C1C=C(C)CC(C)(C)C1Cc1cc(OC)c(Br)cc1OC(C)=O (configuration not stated) | 0.0596 µM | 0.77 | 42 | 1.46 | 2.2 µM | 0.71 | 1.94 µM | – | – | – | – | –
4 | C=C1C=CCC(C)(C)C1Cc1cc(OC)c(Br)cc1O (configuration not stated) | 0.156 µM | 0.28 | 71 | – | 2.78 µM | 0.783 | 1.52 µM | – | – | – | – | –
5 | C=C1C=C(C)CC(C)(C)C1(O)Cc1ccc([N+](=O)[O-])cc1 (configuration not stated) | – | – | 87 | – | 8.51 µM | – | 6.45 µM | – | – | – | – | –
6 | C=C1C=C(C)CC(C)(C)C1Sc1ccc([N+](=O)[O-])cc1 (configuration not stated) | – | – | 44 | – | 8.21 µM | – | > 10 µM | – | – | – | – | –
7 | C=C1CCC[C@@H](C)[C@@H]1Cc1cc(OC)c(Br)cc1O | 0.069 µM | 0.2 | 62 | 3.01 | 2.29 µM | 0.32 | 0.57 µM | – | – | – | – | –
8 | C=C1C=C(C)CC(C)(C)C1Cc1ccc2nonc2c1 (configuration not stated) | 0.088 µM | 0.775 | 72 | – | 8.36 µM | 1.95 | > 10 µM | – | – | – | – | –
9 | C=C1CCC[C@H](C)[C@H]1Cc1cc(OC)c(Br)cc1O | 0.071 µM | 0.3 | 93 | – | 3.7 µM | 1.05 | 1.64 µM | – | – | – | – | –
10 | C=C1C=C(C)C[C@@H](C)[C@@H]1Cc1cc(OC)c(Br)cc1OC(C)=O | 0.021 µM | 0.147 | 52 | 3.01 | 2.38 µM | 0.35 | 1.5 µM | – | – | – | – | –
11 | C=C1CC[C@@H](Br)C(C)(C)[C@@H]1Cc1cc(OC)c(Br)cc1O | 0.343 µM | 3.5 | < 20 | – | 2.47 µM | – | – | – | 0.035 | 0.238 | > 10 | > 10
12 | CCOC1=CC(=O)C(Cc2ccc([N+](=O)[O-])cc2)C(C)(C)C1 (configuration not stated) | > 10 µM | – | 93 | – | 10 µM (not active) | 2.44 | 10 µM (not active) | – | – | – | – | –
13 | C=C1C(C)=CCC(C)(C)[C@@H]1Cc1cc(OC)c(Br)cc1OC(C)=O | 0.455 µM | 0.21 | 83 | – | 4.11 µM | 0.66 | 6.39 µM | – | – | – | – | –

Now from value to molecule, other results behind:

Row | Ki (Progesterone receptor [1]) | IC50 (Progesterone receptor [2]) [µM] | Max inhibition [3] [%] | EC50 (Progesterone receptor [4]) [µM] | Ki (Glucocorticoid receptor [5]) | IC50 (Progesterone receptor [6]) [µM] | Ki (Androgen receptor [7]) | Max inhibition [11] [%] | SMILES | EC50 (Progesterone receptor [8]) [µM] | IC50 (Androgen receptor [9]) [µM] | IC50 (Estrogen receptor) [µM] | IC50 (Glucocorticoid receptor [10]) [µM]
14 | 0.077 µM | 0.163 | 55 | 4.02 | 2.21 µM | 0.405 | – | – | C=C1CCCC(C)(C)C1Cc1cc(OC)c(Br)cc1O (configuration not stated) | – | – | – | –
15 | 0.022 µM | > 10 | < 20 | – | 1.04 µM | – | 0.696 µM | – | C=C1C[C@H](C)CC(C)(C)[C@@H]1Cc1cc(OC)c(Br)cc1O | 0.458 | – | – | –
16 | – | – | 66 | – | 2.67 µM | – | 1.59 µM | – | C=C1C=C(C)C(Cc2cc(OC)c(Br)cc2O)C(C)(C)C1 (configuration not stated) | – | – | – | –
17 | 10 µM (not active) | 1.7 | 73 | – | > 10 µM | 3.4 | 10 µM (not active) | – | C=C1[C@H](O)CCC(C)(C)[C@@H]1Cc1cc(OC)c(Br)cc1O | – | – | – | –
18 | 0.084 µM | 0.35 | 63 | – | 1.66 µM | 0.985 | 1.14 µM | – | C=C1C[C@H](C)C[C@@H](C)[C@@H]1Cc1cc(OC)c(Br)cc1O | – | – | – | –
19 | – | – | 37 | – | 1.26 µM | – | 1.45 µM | – | C=C1C=C(C)CC(C)(C)C1Cc1cc(OC)c(Br)cc1O (configuration not stated) | – | – | – | –
20 | 3.25 µM | 2 | 87 | – | 6.39 µM | 3.3 | 6.81 µM | 87 | C=C1C[C@H](CO)CC(C)(C)[C@@H]1Cc1cc(OC)c(Br)cc1O | – | – | – | –
21 | 0.034 µM | 0.29 | 45 | 3.26 | 1.78 µM | 0.597 | – | – | C=C1CCCC(C)(C)[C@@H]1Cc1cc(OC)c(Br)cc1O | – | – | – | –
22 | 0.275 µM | 0.43 | 78 | – | > 10 µM | 2 | 6.66 µM | – | C=C1[C@@H](Cc2cc(OC)c(Br)cc2O)C(C)(C)CC[C@@]1(C)O | – | – | – | –
23 | 0.441 µM | 0.25 | 98 | – | 4.53 µM | 1.2 | 1.92 µM | – | C=C1CCC(C)(C)C1Cc1cc(OC)c(Br)cc1O (configuration not stated) | – | – | – | –
